From PMC12057336 (Antimicrobial Agents and Chemotherapy, 2025)

Molecular target: T1, human OAT3 (Homo sapiens, UniProt Q8TCC7)
T1 sequence (Q8TCC7 1-542): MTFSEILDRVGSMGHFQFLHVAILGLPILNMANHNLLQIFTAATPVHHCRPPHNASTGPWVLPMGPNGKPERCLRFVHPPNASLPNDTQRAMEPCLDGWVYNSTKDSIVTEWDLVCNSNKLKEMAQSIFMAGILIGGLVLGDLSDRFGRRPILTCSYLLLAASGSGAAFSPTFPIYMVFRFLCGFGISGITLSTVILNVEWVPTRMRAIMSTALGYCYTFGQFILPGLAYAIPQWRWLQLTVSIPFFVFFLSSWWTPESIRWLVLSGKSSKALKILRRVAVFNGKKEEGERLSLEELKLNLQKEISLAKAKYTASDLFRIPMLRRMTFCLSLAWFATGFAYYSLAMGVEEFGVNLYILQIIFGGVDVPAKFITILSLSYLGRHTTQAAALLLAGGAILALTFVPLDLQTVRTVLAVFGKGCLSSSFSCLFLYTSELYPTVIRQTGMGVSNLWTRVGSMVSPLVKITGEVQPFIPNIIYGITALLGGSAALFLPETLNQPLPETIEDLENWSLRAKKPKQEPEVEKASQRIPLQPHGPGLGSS
Test: Uptake in OAT3-transfected HEK293 cells
Details: 5 µM; 10 min; 37°C; vs mock cells
Method: OATP1B1-, OATP1B3-, OATP2B1-, NTCP-, OAT1-, and OAT3-transfected HEK293 cells were cultured in DMEM supplemented with 10% FBS, 100 U/mL penicillin-streptomycin at 37°C with 95% relative humidity atmosphere containing 5% CO2. All cells were seeded in 24-well plates at a density of 4 × 10^5 cells/well and cultured for 1–2 days until they reached 80%–90% confluence. Prior to the initiation of uptake studies, the cells were washed twice with HBSS buffer at 37°C. Membrane vesicles were stored at −80°C and thawed at 37°C prior to the initiation of the studies.
All uptake tests were performed in triplicates. The activities of transporter-transfected HEK293 cells were evaluated using relevant positive substrates and inhibitors. E17G (5 µM, OATP1B1 and OATP1B3), ES (2 µM, OATP2B1), ES (5 µM, OAT3), TCA (10 µM, NTCP), and PAH (20 µM, OAT1) were used as substrates of the transporters. The inhibitors for each transporter were rifampicin (200 µM, OATP1B1 and OATP1B3), erlotinib (10 µM, OATP2B1), CsA (20 µM, NTCP), and probenecid (200 µM, OAT1 and OAT3).
The cells were washed three times with ice-cold HBSS buffer. […] The total protein concentration was measured using a BCA Protein Assay Kit. The uptake rates of HEK293-OATP1B1, HEK293-OATP1B3, HEK293-OATP2B1, HEK293-NTCP, HEK293-OAT1, HEK293-OAT3, and mock cells were calculated. […]

Question: `CC(=O)NC[C@H]1CN(c2ccc(N3CCOCC3)c(F)c2)C(=O)O1` [Linezolid] was tested. Which “substrate for OAT3” value did it give?
Answer: not a substrate
